Here are results for five compounds from patent US6667157B1, “Compositions and methods for the abrogation of cellular proliferation utilizing the human immunodeficiency virus VPR protein” (priority 1994, dated 2003).

The subject of test [1] is HIV LTR. Put plainly: LTR-CAT assay in RD cells transfected with pBennCAT. The format is cell-based, HIV-1. The following applies: for increase in CAT activity over the controls: agent added to medium of LTR-CAT transfected RD cells, harvested 48 hours later. As to the method: Induction of the HIV-LTR was measured as a function of a reporter gene (CAT) function. pBennCAT, an LTR-CAT encoding construct, obtained from M. Martin, through the NIH ARRRP was used. The levels of CAT protein were measured using a CAT ELISA capture assay (Boehringer Mannheim), following manufacturer's specifications. The levels of CAT activity were measured by a chloramphenicol acetyltransferase assay, according to published procedures (Gorman, et al., 1982, The Rous sarcoma virus long terminal repeat is a strong promoter when introduced into a variety of eukaryotic cells by DNA mediated transfection. Proc. Natl. Acad. Sci. USA. 79, 6777-6781). Briefly, RD cells were transfected with pBennCAT (Gendelman, 1986, Trans-activation of the Human immunodeficiency virus long terminal repeat sequence by DNA viruses. Proc. Natl. Acad. Sci. USA. 83, 9759-9763), using DOTAP. Cells were washed 12 hours later and new medium, containing the test reagents was added to the cell monolayers. 48 hours later, cells were washed three times with Ca+2/Mg+2 free PBS. Cells were then scraped off the plate, and collected with 1 ml PBS. Cell pellets were lysed by resuspending them in 100 μl 0.25M Tris, pH 7.8, and undergoing three freeze-thaw cycles using an ethanol-dry ice bath, and a 37° C. water bath. Lysates were spun at 12,000 G for 5 minutes and samples were stored at −20° C. until they were used. The CAT reaction was set up using 5 μl C^14 chloramphenicol (40-50 mCi/mmole), 70 μl ddH2O, 35 μl 1M Tris, pH 7.8, 20 μl 4 mM acetyl Coa (Pharmacia), 20 μl cell lysate. The reactions were incubated at 37° C. for an hour, and subsequently extracted with 1 ml ethyl acetate. After resuspension in 20 μl ethyl acetate, samples were spotted on the silica gel TLC plates (Whatman), and developed in chloroform:methanol (95:5); ascending. Gels were dried and exposed to film (Kodak XAR) overnight at room temperature. The panel of HIV-1 LTR/CAT mutants were obtained from Dr. Joseph Stevens, through the NIH ARRRP. pGRE5/CAT was obtained from United States Biochemicals.
The possibility that activation of the GR pathway could play a central role in the viral transcription process was considered. To test this, RD cells were transfected with an LTR-CAT encoding plasmid (pBennCAT) (Gendelman, 1986, supra), without selection. 12 hours later, the cell monolayers were washed and fresh medium containing the test reagents was added to the cultures, and 48 hours later the cells were harvested. In these studies, the co-transfection of a vpr encoding plasmid with the LTR-CAT encoding plasmid produced an increase in CAT activity of 5-10 fold over the controls, as has been previously reported. […] Vpr protein was detected in the tissue culture media of these cells, as assessed by capture ELISA.

In test [2] the test system is HIV-1 NL43 Δvpr. In words: Complementation in trans of HIV-1 NL43 Δvpr in nonproductively infected U937 cells (virus production). Type of test: cell-based. The following applies: for complementation in trans of HIV-1 NL43 Δvpr virus: agent added to tissue culture medium of nonproductively infected U937 cells. As to the method:
(§1) The following cell lines were obtained from the American Type Culture Collection; TE671 human embryonal rhabdomyosarcoma (ATCC HTB139), A673 embryonal rhabdomyosarcoma (ATCC CRL 1598), D17 canine osteosarcoma (ATCC CCL183), HOS human osteosarcoma (ATCC CRL 1543), U373 human glioblastoma (ATCC HTB17), SK-N-MC neuroblastoma (ATCC HTB10). Two additional glioblastoma lines were kindly provided by the Medical Research Council (MRC), England, (HT17 and HT16). U87MG (HTB14) is a glial cell line obtained from the University of Pennsylvania Cell Center. RD rhabdomyosarcoma cells were provided by Dr. A. Srinivasan. The T lymphocytic cells H9 and SupT-I were obtained from the University of Pennsylvania Cell Center, and KG-1 was obtained from Dr. G. Trinchieri. The murine NIH 3T3 line was obtained from ATCC. BSC-1, CV-1 and COS cell lines were obtained Dr. B. Moss. Primary PBL as well as primary monocytes/macrophages were isolated as in Levy, et al. 1994b, supra. All non-hematopoietic cells were cultured in DMEM with 10% heat inactivated fetal calf serum, penicillin/streptomycin, I-glutamine, Hepes (25 mM) and sodium pyruvate. Hematopoietic cells were cultured in RPMl 1640 as above except using 10% autologous human serum. Virus were prepared as described in Levy, et al., 1994b, supra; Levy, et al., 1994a, supra, which are incorporated herein by reference.
The rabbit anti-vpr peptide serum (aa 2-21, “808”) was obtained from Bryan Cullen through the NIH ARRRP. The human anti-gag p24 (V7.8) was obtained from Ronald Kennedy through the NIH ARRRP. The sheep anti-p24 was obtained from the FDA through the NIH ARRRP. […]
Such nonproductively infected cells can be rescued for p24 production by addition of exogenous vpr protein (Levy, et al., 1994a, supra; Levy, et al., 1994b, supra). […] When the nonproductively infected U937 cells described above were exposed to vpr protein, rip-1 translocated 12 hours later, and virus was first detected in the media 36 hours after the initial exposure to vpr. […]

The subject of test [3] is rip-1. Put plainly: rip-1 cytoplasmic to nuclear translocation (cellular fractionation, vpr-ligand blot). The following applies: for nuclear translocation of rip-1: exposure of cells to agent, steroids at 10^−6M. The format is cell-based. As to the method:
3×10^6 cells were washed twice in PBS, and lysed in 200 μl of lysis buffer (150 mM NaCl, 50 mM Tris, pH 8.0, 0.5% Triton X-100, plus protease inhibitors: aprotinin, leupeptin, pepstatin A, each at 2 μg/ml; PMSF, 1 mM, and EDTA, 1 mM). Cell suspension was incubated on ice for 10 minutes with frequent vortexing, and centrifuged at 12000 g for 6 minutes. The soluble, as well as the insoluble fractions were run on 12% SDS-PAGE, and transferred to PVDF membranes (Millipore), as described. Membranes were blocked with 5% non fat dry milk, in TBS supplemented with 0.05% Tween-20. Blocked membranes were incubated with either purified vpr protein (approximately 50 ng/ml) or an irrelevant protein. These membranes were then incubated with 808 rabbit anti vpr antiserum Levy, et al. 1994b, supra, followed by I^125 protein G (NEN), and exposed to film for at least 12 hours at −80° C.

Test [4] has as its system HIV-1 NL43. Put plainly: Virus production by HIV-1 NL43 infected U937 cells. The format is cell-based. As to the method:
as §1, with “reference. […]” for “reference.”

`C[C@@H]1C[C@H]2[C@@H]3CCC4=CC(=O)C=C[C@]4(C)[C@@]3(F)[C@@H](O)C[C@]2(C)[C@@]1(O)C(=O)CO` [Dexamethasone]: in test [1], the “increase in CAT activity over the controls” value is recorded as “ca. 50 fold”.
Turning to `C[C@]12CCC(=O)C=C1CC[C@@H]1[C@@H]2[C@@H](O)C[C@@]2(C)[C@H]1CC[C@]2(O)C(=O)CO` [Hydrocortisone], the “complementation in trans of HIV-1 NL43 Δvpr virus” value in test [2] was “complemented in trans”. The “increase in CAT activity over the controls” value in test [1] was “ca. 50 fold”. The “nuclear translocation of rip-1” value in test [3] is recorded as “induced the nuclear translocation of rip-1”.
`CCCCCCCCCCCCCC(=O)O[C@@H]1[C@@H](C)[C@@]2(O)[C@@H](C=C(CO)C[C@]3(O)C(=O)C(C)=C[C@@H]23)[C@@H]2C(C)(C)[C@]12OC(C)=O` [PMA]: in test [3], the “nuclear translocation of rip-1” value was “not”.
`CC#C[C@]1(O)CC[C@H]2[C@@H]3CCC4=CC(=O)CCC4=C3[C@@H](c3ccc(N(C)C)cc3)C[C@@]21C` [mifepristone]: the “effect on transcomplementation of HIV-1 NL43 Δvpr infected U937 cells by vpr protein” value in test [2] (mifepristone treatment) is given as “abolished”. Further, in test [4] (HIV-1 infected cells exposed to mifepristone, 10^−6M), the “levels of virus produced, lower than the untreated cultures” value was “about 70%”. In test [4] (infected cells plus vpr protein, mifepristone 10^−6M), the “inhibition of the enhancement in virus production by addition of vpr protein” value is 80-90 % inhibition. In addition, in test [1] (cultures supplemented with mifepristone), the “effect on increase in CAT activity stimulated by vpr protein or steroids” value is “inhibited”. In addition, the “effect on increase in CAT activity in cells cotransfected with vpr encoding plasmid and LTR-CAT plasmid” value in test [1] (mifepristone) is reported as “blocked”. Besides, the “effect on vpr induced translocation of rip-1” value in test [3] (mifepristone 10^−6M) was “inhibited”. In addition, in test [3] (mifepristone added to culture medium, 10^−6M), the “effect on rip-1 nuclear translocation induced by Dexamethasone and Hydrocortisone” value is listed as “blocked”.
As to cyclodextrin, the “complementation in trans of HIV-1 NL43 Δvpr virus” value in test [2] is “not affected”. The “nuclear translocation of rip-1” value in test [3] is “failed to induce the nuclear translocation of rip-1”.
